Experimental data from ChEMBL document CHEMBL1148617, “Design, synthesis, and structure-activity relationships of 1-,3-,8-, and 9-substituted-9-deazaxanthines at the human A2B adenosine receptor” (J Med Chem, 2006).

Columns and labels:
Adenosine receptor A2b = molecular target: T1, Adenosine receptor A2b (Homo sapiens, UniProt P29275)
T1 sequence (P29275 whole entry): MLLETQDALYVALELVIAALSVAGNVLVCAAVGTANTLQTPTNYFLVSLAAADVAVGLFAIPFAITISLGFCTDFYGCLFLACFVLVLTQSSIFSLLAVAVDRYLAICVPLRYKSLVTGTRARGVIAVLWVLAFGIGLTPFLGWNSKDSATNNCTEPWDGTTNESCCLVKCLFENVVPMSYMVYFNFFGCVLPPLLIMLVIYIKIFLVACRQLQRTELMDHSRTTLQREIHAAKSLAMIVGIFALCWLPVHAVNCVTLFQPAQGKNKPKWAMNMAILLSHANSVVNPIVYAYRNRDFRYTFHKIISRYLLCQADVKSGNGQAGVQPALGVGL
Description: Binding affinity to recombinant human adenosine A2B receptor

Adenosine receptor A2a [1] = molecular target: T2, Adenosine receptor A2a (Homo sapiens, UniProt P29274); test: Displacement of [3H]ZM-241385 from recombinant human adenosine A2A receptor expressed in HeLa cells at 0.1 uM
[2] = molecular target: T3, Adenosine receptor A2b (Homo sapiens) (UniProt P29275); test: Displacement of [3H]DPCPX from recombinant human adenosine A2B receptor expressed in HEK293 cells at 0.1 uM; format: cell-based
T3 sequence (whole entry): T1 sequence (P29275 whole entry)

Adenosine receptor A2a [3] = molecular target: T2, Adenosine receptor A2a
Description: Binding affinity to recombinant human adenosine A2A receptor

[4] = molecular target: T3, Adenosine receptor A2b (Homo sapiens); test: Displacement of [3H]DPCPX from recombinant human adenosine A2B receptor expressed in HEK293 cells at 0.01 uM

T2 sequence (P29274 whole entry): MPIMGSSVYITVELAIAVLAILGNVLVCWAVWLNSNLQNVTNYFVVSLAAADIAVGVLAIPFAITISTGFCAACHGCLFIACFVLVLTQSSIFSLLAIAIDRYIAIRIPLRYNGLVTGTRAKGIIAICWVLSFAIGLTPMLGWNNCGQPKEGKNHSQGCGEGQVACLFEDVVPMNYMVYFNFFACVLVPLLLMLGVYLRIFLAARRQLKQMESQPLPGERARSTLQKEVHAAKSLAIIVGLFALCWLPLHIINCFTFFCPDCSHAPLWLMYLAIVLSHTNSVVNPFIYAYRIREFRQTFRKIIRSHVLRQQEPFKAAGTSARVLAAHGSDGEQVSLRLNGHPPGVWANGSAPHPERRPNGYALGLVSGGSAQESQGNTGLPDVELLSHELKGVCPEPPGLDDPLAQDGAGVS

| Compound | Ki (Adenosine receptor A2b) [nM] | inhibition (Adenosine receptor A2a [1]) [%] | inhibition [2] [%] | Ki (Adenosine receptor A2a [3]) [nM] | inhibition [4] [%] |
| --- | --- | --- | --- | --- | --- |
| CCCn1c(=O)c2[nH]c(-c3ccc(OCC(=O)Nc4ccc(F)cc4)cc3)c(Cl)c2n(CCC)c1=O | 27.5 | 54 | 69 | 40.7 | 10 |
| CCCn1c(=O)c2[nH]c(-c3ccc(OCC(=O)Nc4ccc(C(N)=O)cc4)cc3)cc2n(CCC)c1=O | 25.1 | 43 | 78 | 24 | 16 |
| CCCn1c(=O)c2[nH]c(-c3ccc(OCC(=O)NCc4ccc(F)cc4)cc3)c(Cl)c2n(CCC)c1=O | 174 | 44 | 25 | 49 | 8 |
| CCCn1c(=O)c2[nH]c(-c3ccc(OC(C)C(=O)Nc4ccc(OC)cc4)cc3)cc2n(CCC)c1=O (stereo not given) | 5.13 | 57 | 92 | 38.9 | 55 |
| CCCn1c(=O)c2[nH]c(-c3ccc(OC(CC)C(=O)Nc4ccc(Br)cc4)cc3)cc2n(CCC)c1=O (stereo not given) | 6.03 | 82 | 94 | 31.6 | 55 |
| CCCn1c(=O)c2[nH]c(-c3ccc(OC(C)(C)C(=O)Nc4ccccc4)cc3)cc2n(CCC)c1=O | 7.94 | 57 | 93 | 53.7 | 51 |
| CCCn1c(=O)c2[nH]c(-c3ccc(OCC(=O)Nc4ccc(NC(C)=O)cc4)cc3)cc2n(CCC)c1=O | 13.8 | 40 | 70 | 63.1 | 23 |
| CCCn1c(=O)c2[nH]c(-c3ccc(OCC(=O)n4ccc(N)n4)cc3)cc2n(CCC)c1=O | 17 | 65 | 83 | 26.3 | 30 |
| CCCn1c(=O)c2[nH]c(-c3ccc(OC(C)(C)C(=O)Nc4ccc(F)cc4)cc3)cc2n(CCC)c1=O | 8.91 | 32 | 97 | 17 | 50 |
| CCCn1c(=O)c2[nH]c(-c3ccc(OCC(=O)Nc4ccc(OC)cc4)cc3)c(Cl)c2n(CCC)c1=O | 27.5 | 45 | 70 | 44.7 | 15 |
| CCCn1c(=O)c2[nH]c(-c3ccc(OCC(=O)Nc4ccc(OC(F)(F)F)cc4)cc3)cc2n(CCC)c1=O | 6.92 | 31 | 91 | 107 | 53 |
| CCCn1c(=O)c2[nH]c(-c3ccc(OCC(=O)Nc4ccc(CC#N)cc4)cc3)cc2n(CCC)c1=O | 11.2 | 46 | 86 | 39.8 | 34 |
| CCCn1c(=O)c2[nH]c(-c3ccc(OCC(=O)Nc4ccc(Cl)cc4)cc3)c(Cl)c2n(CCC)c1=O | 22.9 | 28 | 80 | 89.1 | 17 |
| CCCn1c(=O)c2[nH]c(-c3ccc(OCC(=O)Nc4ccc(O)cc4)cc3)cc2n(CCC)c1=O | 34.7 | 51 | 79 | 56.2 | 24 |
| CCCn1c(=O)c2[nH]c(-c3ccc(OCC(=O)Nc4ccc(F)cc4)cc3)c(Br)c2n(CCC)c1=O | 12.6 | 70 | 72 | 20 | 30 |
| CCOC(=O)COc1ccc(-c2cc3c([nH]2)c(=O)n(C)c(=O)n3C)cc1OC | 1510 | 18 | 8 | 3720 |  |
| CCn1c(=O)c2[nH]c(-c3ccc(OCC(=O)O)cc3)cc2n(CCCOC)c1=O | 72.4 | 20 | 66 | 933 |  |
| CCOC(=O)COc1ccc(-c2cc3c([nH]2)c(=O)n(C)c(=O)n3CCCOC)cc1 | 372 | 5 | 22 | 1860 |  |

Further lines, results first:

| Ki (Adenosine receptor A2b) [nM] | inhibition (Adenosine receptor A2a [1]) [%] | inhibition [2] [%] | Ki (Adenosine receptor A2a [3]) [nM] | inhibition [4] [%] | Compound |
| --- | --- | --- | --- | --- | --- |
| 13.8 | 29 | 80 | 120 | 27 | COCCCn1c(=O)n(C)c(=O)c2[nH]c(-c3ccc(OCC(=O)Nc4ccccc4)cc3)cc21 |
| 51.3 | 25 | 66 | 182 | 12 | Cn1c(=O)c2[nH]c(-c3ccc(OCC(=O)NCc4ccccc4)cc3)cc2n(C)c1=O |
| 38.9 | 32 | 78 | 81.3 | 15 | COc1cc(-c2cc3c([nH]2)c(=O)n(C)c(=O)n3C)ccc1OCC(=O)Nc1ccc(Br)cc1 |
| 186 | 23 | 43 | 158 | 5 | COc1cc(-c2cc3c([nH]2)c(=O)n(C)c(=O)n3C)ccc1OCC(=O)NCc1ccc(Cl)cc1 |
| 11.7 | 9 | 88 | 2630 | 12 | CCCn1c(=O)c2[nH]c(-c3ccc(OCC(=O)Nc4ccc(C(=O)OCC)cc4)cc3)cc2n(C)c1=O |
| 123 | 23 | 46 | 186 | 11 | COc1cc(OCC(=O)NCc2ccc(Cl)cc2)ccc1-c1cc2c([nH]1)c(=O)n(C)c(=O)n2C |
| 42.7 | 17 | 59 | 891 | 15 | CCN(Cc1ccccc1)C(=O)COc1ccc(-c2cc3c([nH]2)c(=O)n(C)c(=O)n3C)cc1 |
| 44.7 | 45 | 73 | 67.6 | 15 | Cn1c(=O)c2[nH]c(-c3cccc(OCC(=O)Nc4ccc(Br)cc4)c3)cc2n(C)c1=O |
| 15.1 | 43 | 81 | 16.2 | 36 | Cn1c(=O)c2[nH]c(-c3ccc(OCC(=O)Nc4nncs4)cc3)cc2n(C)c1=O |
| 145 | 35 | 45 | 45.7 | 10 | COc1cc(-c2cc3c([nH]2)c(=O)n(C)c(=O)n3C)ccc1OCC(=O)Nc1ccc(F)cc1 |
| 83.2 | 43 | 47 | 60.3 | 10 | CCCn1c(=O)c2[nH]c(-c3ccc(OCC(=O)NCc4ccccc4)cc3)c(Cl)c2n(CCC)c1=O |
| 27.5 | 13 | 63 | 245 | 20 | CC(NC(=O)COc1ccc(-c2cc3c([nH]2)c(=O)n(C)c(=O)n3C)cc1)c1ccccc1 (stereo not given) |
| 4.9 | 75 | 93 | 20.4 | 61 | Cn1c(=O)c2[nH]c(-c3ccc(OCC(=O)NCc4ccc(Cl)cc4)cc3)cc2n(C)c1=O |
| 55 | 14 | 67 | 1020 | 10 | CN(Cc1ccccc1)C(=O)COc1ccc(-c2cc3c([nH]2)c(=O)n(C)c(=O)n3C)cc1 |
| 79.4 | 8 | 57 | 692 | 20 | Cn1c(=O)c2[nH]c(-c3ccc(OCC(=O)NC4CCCC4)cc3)cc2n(C)c1=O |
| 214 | 5 | 28 | 575 | 10 | COc1cc(-c2cc3c([nH]2)c(=O)n(C)c(=O)n3C)ccc1OCC(=O)Nc1ccc(C#N)cc1 |
| 28.2 | 18 | 76 | 302 | 21 | CCCn1c(=O)c2[nH]c(-c3ccc(OCC(=O)NCc4ccncc4)cc3)cc2n(CCC)c1=O |
| 19.1 | 82 | 74 | 32.4 | 56 | CCCn1c(=O)c2[nH]c(-c3ccc(OCC(=O)Nc4ccccc4O)cc3)cc2n(CCC)c1=O |
| 4.68 | 93 | 96 | 15.5 | 57 | O=C(COc1ccc(-c2cc3c([nH]2)c(=O)n(CC2CC2)c(=O)n3CC2CC2)cc1)Nc1ccccc1 |
| 148 | 20 | 27 | 302 | 10 | COc1cc(-c2cc3c([nH]2)c(=O)n(C)c(=O)n3C)ccc1OCC(=O)Nc1ccccc1 |
| 8.91 | 60 | 76 | 18.6 | 49 | CCCn1c(=O)c2[nH]c(-c3ccc(OCC(=O)Nc4ccc(OCc5ccccc5)cc4)cc3)cc2n(CCC)c1=O |
| 12.3 | 18 | 91 | 170 | 38 | CCCn1c(=O)c2[nH]c(-c3ccc(OCC(=O)Nc4ccccc4)cc3)cc2n(C)c1=O |
| 123 | 14 | 47 | 4170 |  | Cn1c(=O)c2[nH]c(-c3ccc(OCC(=O)O)cc3)cc2n(C)c1=O |
| 214 | 11 | 35 | 11500 |  | COCCCn1c(=O)n(C)c(=O)c2[nH]c(-c3ccc(OCC(=O)O)cc3)cc21 |
